Blank lines part the entries; values can stand above or below the compound they belong to.
Experiments:
[1] = test system: rodents; details: cited from earlier work
[2] = test system: chromatin of cells cultured in Th17 inducing conditions; assay: Assay for Transposase Accessible Chromatin (ATAC) sequencing; assay type: cell-based
Protocol: Assay for Transposase Accessible Chromatin (ATAC) sequencing assay uses a hyperactive protein to bind and snip DNA in open chromatin regions to probe for the parts of DNA are accessible for transcription. The ATAC assay was performed to determine whether ATRA causes epigenetic modifications to cellular DNA to influence the accessibly of DNA for transcription and, in turn, modulating what a cell's “default” state/programs are. Quantification of differentially accessible regions (DARs) is shown by counts per peak between cells cultured in Th17 inducing conditions with (ATRA Treated) or without (Th17 Control) 1 nM ATRA. (FIG. 11A).
FIG. 11C is a heatmap of all DARs grouped in rows by those enriched in the ATRA treated group or those enriched in the Tb17 Control group. Heatmapping was performed by determining the z-score of the DAR in a given sample as compared to the row. A Genome browser plot for Th17 and Treg associated genes is shown (FIG. 11D). The size of the peaks corresponds to the number of reads, so the bigger the peaks are the more accessible that region of DNA is.

[3] = test system: Naïve SKG CD4+ T cells; assay: ex vivo Th17 differentiation assay in Th17 inflammatory conditions; assay type: cell-based, mouse; details: for FoxP3 expression in CD4+ T cells: Th17 polarizing cytokines, four days
Protocol: To test the effect of ATRA on enhancing Treg cells, an ex vivo differentiation and stabilization assay in Th17 inflammatory conditions using cytokine supplementation was performed (FIG. 1A). Naïve SKG CD4+ T cells were isolated to consistently obtain greater than 90% CD4+CD44−CD62L+ post-enrichment (data not shown). Subsequently, these cells were stimulated with anti-mouse CD3 (αCD3) and CD28 (αCD28) antibodies along with Th17 polarizing cytokines IL-6, TGF-β1, IL-1β, and IL-23, and immunophenotypes were analyzed after four days. In a subset of conditions, ATRA was added to the T cell culture medium, ranging from 10 pM to 10 nM. […] In addition to reduced expression of IL-17A, the fraction of RORγt+CD4+ T cells was reduced in 1 nM ATRA conditions (53.3±7.9%) relative to cells exposed 0 nM ATRA (73.3±3.9%) (FIG. 1D).
(§1) The bioactivity of released ATRA was assessed following the experimental schematic outlined in FIG. 1A with supernatant collected at day 1, 14 and 28 and replicates diluted to the expected joint concentration based on delivery of 2 μg ATRA-encapsulated PLGA MPs injected in ˜20 μL of synovial fluid.

[4] = test system: SKG FoxP3eGFP Treg cells; assay: Treg cell stability (destabilization) assay; assay type: cell-based, mouse; details: 1 nM ATRA, IL6, 72 hours
Protocol: The loss of FoxP3 expression correlated with Treg cell transitioning to a Th17-like exTreg cell phenotype, with 23.0±1.7% and 13.3±1.5% of cells without ATRA expressing RORγt and IL-17, respectively, compared to 11.6±1.8% and 5.7±1.1% of cells cultured with 1 nM ATRA (FIGS. 1G and H).
as §1

[5] = test system: healthy C57BL/6J (B6) mice; assay: OVA immunization in healthy C57BL/6J mice; assay type: in vivo, mouse; details: spleen; daily i.p. administration
From the text: To quantify the effect of IA ATRA-encapsulated PLGA MPs on arthritis-irrelevant T cell suppression we leveraged OVA-specific tetramers available for quantifying T cells in H2b-background mice and conducted the aforementioned immunization study in healthy C57BL/6J (B6) mice (FIG. 8D). Systemically administered ATRA was delivered as a daily intraperitoneal (i.p.) injection to assess the effect of systemic exposure.

[6] = test system: CD4+ T cells; assay: 24-hour pretreatment then transfer to Th17 inducing conditions; assay type: cell-based; details: 24-hour pretreatment 1 nM ATRA, washed
Protocol: FIG. 10A depicts the quantification of FOXP3 expression in CD4+ T cells after 24-hour pretreatment with either nothing (None), 1 nM ATRA (ATRA), or IL-2, followed by removal and washing of the cells, and transfer to Th17 inducing conditions. FIG. 10B depicts quantification of IL-17 expression in CD4+ T cells after a 24-hour pretreatment with either nothing (None), 1 nM ATRA (ATRA), or IL-2, followed by removal and washing of the cells, and transfer to Th17 inducing conditions. Pre-treatment of the CD4+ T cells with ATRA increases FOXP3 expression and reduces IL-17 expression after exposure to Th17 inducing conditions.

[7] = test system: SKG mice with mannan-induced arthritis; assay: IA treatment of established SKG arthritis (clinical score, ankle thickness); assay type: in vivo, mouse
Protocol: To assess the feasibility of modulating established SKG arthritis. ATRA-encapsulated PLGA MPs were injected into the tibial/tarsal ankle joint of ten SKG mice with middle stage arthritis, prior to the development of severe symptoms. PLGA-Blank MPs were injected into the tibial/tarsal ankle joint of eleven SKG mice with middle stage arthritis. Arthritis onset was synchronized using inter-peritoneal (IP) mannan injection. ATRA-encapsulated PLGA MPs treatment was administered after 14 days, corresponding to established SKG arthritis (FIG. 3A). To track MP degradation in vivo, cyanine-5 (Cy5) conjugated PLGA was incorporated to generate fluorescently labeled Cy5 PLGA MPs and PLGA MPs without ATRA (PLGA-Blank MPs). The PLGA-Blank MPs were imaged using a live animal. In Vivo Imaging System (IVIS). […] Based on fluorescence attenuation, MPs remained localized in the joint after injection and steadily degraded over the course of the study (FIG. 3B). Arthritis progression was quantified using bi-weekly clinical scoring between the treatment groups. […] The improvement in clinical score and ankle thickness measurements were quantified in both the ipsilateral and contralateral joints in the above described studies (FIG. 3H-J, FIGS. 6B and C).

[8] = test system: arthritic SKG mice; assay: subcutaneous administration to arthritic SKG mice; assay type: in vivo, mouse; details: subcutaneously between the scapula
Protocol: The efficacy of subcutaneously administered ATRA-encapsulated PLGA MPS in treating SKG mice was assessed to determine whether ATRA-encapsulated PLGA MPS act via systemic release, in which case subcutaneous ATRA-encapsulated PLGA MPS treatment would improve disease scores, or if ATRA-encapsulated PLGA MPS treatment acts locally, in which case its delivery to the intra-articular space would improve disease scores. ATRA-encapsulated PLGA MPS, dose-matched Bolus ATRA in corn oil, and vehicle (corn oil) were administered to arthritic SKG subcutaneously between the scapula of SKG mice (FIGS. 9A-B).

OVA-specific CD4+ T cells (tetramer staining) [5]: significantly lower
Compound: CC1=C(/C=C/C(C)=C/C=C/C(C)=C/C(=O)O)C(C)(C)CCC1 [ATRA, all-trans retinoic acid]
doses associated with toxicity [1]: > 14 mg/kg
regions in the DNA more open in the ATRA treated cells ([2]; 1 nM ATRA versus Th17 control): 7957
accessibility of FoxP3 locus ([2]; 1 nM ATRA, genome browser plot): promotes accessibility
regions in the DNA more open in the Th17 control ([2]; Th17 control versus 1 nM ATRA): 10316
fraction of IL-17A+CD4+ T cells ([3]; 10 pM ATRA): 9.5±1.7%
fraction of IL-17A+CD4+ T cells ([3]; 100 pM ATRA): 7.2±1.5%
fraction of IL-17A+CD4+ T cells ([3]; 1 nM ATRA): 5.4±1.9%
fraction of RORγt+CD4+ T cells ([3]; 1 nM ATRA): 53.3±7.9%
fraction of IL-17A+CD4+ T cells ([3]; 10 nM ATRA): 5.4±2.3%
FoxP3 expression in CD4+ T cells ([3]; ATRA above 100 pM): 40.0±3.4%
FoxP3 expression in CD4+ T cells ([3]; ATRA below 100 pM): 11.2±2.3%
cells expressing IL-17 [4]: 5.7±1.1%
cells expressing RORγt [4]: 11.6±1.8%
cells retaining FoxP3eGFP expression [4]: 71.6±5.5%
FOXP3 expression [6]: increases
IL-17 expression [6]: reduces

Compound: CC1=C(/C=C/C(C)=C/C=C/C(C)=C/C(=O)O)C(C)(C)CCC1 [bolus ATRA, all-trans retinoic acid]
severity of arthritis / clinical benefit ([7]; 2 μg IA MPs versus dose-matched IA bolus): no clinical benefit
clinical scores in ipsilateral and contralateral ankles ([7]; dose-matched IA bolus in corn oil): increased comparably
ankle swelling [8]: Neither bolus ATRA nor ATRA-encapsulated PLGA MPs provided improvement
clinical score [8]: Neither bolus ATRA nor ATRA-encapsulated PLGA MPs provided improvement

Source: patent US12201598B2, “Immunoregulatory microparticles for modulating inflammatory arthritides” (The Regents of the University of California, priority 2021, dated 2025)
